Source: PubChem BioAssay AID256 (DTP/NCI, 2004)
Toxic doses and inconclusive results are not listed.

Tested on: CD2F1 mice, L1210 leukemia ip, survival T/C
Assay: NCI In Vivo Anticancer Drug Screen. Data for tumor model L1210 Leukemia (intraperitoneal) in CD2F1 (CDF1) mice
Conditions: endpoint: mean survival time, higher = longer survival
Procedure, shortened: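 In this screen, transplantable tumors were grown in mice given either the compound or its vehicle. Results were expressed as the treated measurement relative to the control measurement.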

[1] = dose: 100.0 mg/kg/injection, schedule: Q04DX003 (ip), vehicle: saline
[2] = dose: 200.0 mg/kg/injection, schedule: Q04DX003 (ip), vehicle: saline
[3] = dose: 400.0 mg/kg/injection, schedule: Q04DX003 (ip), vehicle: saline

## COc1cc2cc(c1Cl)N(C)C(=O)/C=C/C1(C)OC1C(C)C1CC(O)(NC(=O)O1)C(OC)C=C/C=C(\C)C2 (stereo not drawn)
dose: 1.3 micrograms/kg/injection, schedule: Q01DX009 (ip), vehicle: saline + alcohol
  T/C: 94 % of control
dose: 2.5 micrograms/kg/injection, schedule: Q01DX009 (ip), vehicle: saline + alcohol
  T/C: 94 % of control
dose: 5.0 micrograms/kg/injection, schedule: Q01DX009 (ip), vehicle: saline + alcohol
  T/C: 97 % of control
dose: 10.0 micrograms/kg/injection, schedule: Q01DX009 (ip), vehicle: saline + alcohol
  T/C: 97 % of control

## C=CCS(=O)(=O)O
dose: 100.0 mg/kg/injection, schedule: Q01DX009 (ip), vehicle: saline sonified
  T/C: 96 % of control
[1]
  T/C: 100 % of control
dose: 200.0 mg/kg/injection, schedule: Q01DX009 (ip), vehicle: saline sonified
  T/C: 96 % of control
[2]
  T/C: 107 % of control
dose: 400.0 mg/kg/injection, schedule: Q01DX009 (ip), vehicle: saline sonified
  T/C: 96 % of control
[3]
  T/C: 107 % of control

## COC(=O)C(CCl)NC(N)=O (stereo not drawn)
dose: 100.0 mg/kg/injection, schedule: Q01DX001 (ip), vehicle: saline
  T/C: 104 % of control
dose: 200.0 mg/kg/injection, schedule: Q01DX001 (ip), vehicle: saline
  T/C: 101 % of control
dose: 400.0 mg/kg/injection, schedule: Q01DX001 (ip), vehicle: saline
  T/C: 104 % of control

## CCCCN(CCCC)c1cc(C(C)=O)c2ccccc2n1
dose: 50.0 mg/kg/injection, schedule: Q04DX003 (ip), vehicle: saline
  T/C: 102 % of control
[1]
  T/C: 102 % of control
[2]
  T/C: 102 % of control

## CC([NH-])C([NH-])O.[Br][Pt+2][Br] (stereo not drawn)
dose: 25.0 mg/kg/injection, schedule: Q04DX003 (ip), vehicle: saline with Tween-80
  T/C: 169 % of control

## COC(=O)CC(=O)C12OC1CC1C3CC=C4CC(OC(C)=O)CCC4(C)C3CCC12C (stereo not drawn)
dose: 75.0 mg/kg/injection, schedule: Q04DX003 (sc), vehicle: steriod suspending solution
  T/C: 101 % of control
dose: 150.0 mg/kg/injection, schedule: Q04DX003 (sc), vehicle: steriod suspending solution
  T/C: 103 % of control
dose: 300.0 mg/kg/injection, schedule: Q04DX003 (sc), vehicle: steriod suspending solution
  T/C: 97 % of control

## C[N+](C)(C)CCS(=O)(=O)[O-]
[1]
  T/C: 102 % of control
[2]
  T/C: 100 % of control
[3]
  T/C: 100 % of control

## COc1cc(/C=N/n2cnnc2)cc(OC)c1OC
dose: 100.0 mg/kg/injection, schedule: Q04DX003 (ip), vehicle: saline with Tween-80
  T/C: 101 % of control
dose: 200.0 mg/kg/injection, schedule: Q04DX003 (ip), vehicle: saline with Tween-80
  T/C: 95 % of control
dose: 400.0 mg/kg/injection, schedule: Q04DX003 (ip), vehicle: saline with Tween-80
  T/C: 96 % of control

## COc1ccc(NC(=O)Nc2cc(OC)c(Cl)cc2OC)cc1
dose: 100.0 mg/kg/injection, schedule: Q04DX002 (ip), vehicle: saline with Tween-80
  T/C: 96 % of control
dose: 200.0 mg/kg/injection, schedule: Q04DX002 (ip), vehicle: saline with Tween-80
  T/C: 89 % of control
dose: 400.0 mg/kg/injection, schedule: Q04DX002 (ip), vehicle: saline with Tween-80
  T/C: 89 % of control

## Cc1ccnc(N)c1N
dose: 12.5 mg/kg/injection, schedule: Q01DX009 (ip), vehicle: other
  T/C: 91 % of control
dose: 25.0 mg/kg/injection, schedule: Q01DX009 (ip), vehicle: other
  T/C: 94 % of control

## COc1ccc(C(=O)/C=C/c2cccc3ccccc23)cc1
dose: 25.0 mg/kg/injection, schedule: Q01DX009 (ip), vehicle: saline with Tween-80
  T/C: 91 % of control
dose: 50.0 mg/kg/injection, schedule: Q01DX009 (ip), vehicle: saline with Tween-80
  T/C: 93 % of control
dose: 100.0 mg/kg/injection, schedule: Q01DX009 (ip), vehicle: saline with Tween-80
  T/C: 91 % of control

## O=c1c2ccccc2sc2c1ccc1c2ccc2c(=O)c3ccccc3sc21
dose: 50.0 mg/kg/injection, schedule: Q01DX009 (ip), vehicle: Klucel (hydroxypropylcellulose) (HPC)
  T/C: 104 % of control
dose: 100.0 mg/kg/injection, schedule: Q01DX009 (ip), vehicle: Klucel (hydroxypropylcellulose) (HPC)
  T/C: 98 % of control
dose: 200.0 mg/kg/injection, schedule: Q01DX009 (ip), vehicle: Klucel (hydroxypropylcellulose) (HPC)
  T/C: 98 % of control

## O=C(O)c1ccccc1SCCO
dose: 100.0 mg/kg/injection, schedule: Q01DX001 (ip), vehicle: Klucel (hydroxypropylcellulose) (HPC)
  T/C: 93 % of control
dose: 200.0 mg/kg/injection, schedule: Q01DX001 (ip), vehicle: Klucel (hydroxypropylcellulose) (HPC)
  T/C: 102 % of control
dose: 400.0 mg/kg/injection, schedule: Q01DX001 (ip), vehicle: Klucel (hydroxypropylcellulose) (HPC)
  T/C: 104 % of control

## O=C(CC(Br)C(=O)c1ccccc1)c1ccccc1 (stereo not drawn)
dose: 100.0 mg/kg/injection, schedule: Q04DX003 (ip), vehicle: saline sonified
  T/C: 92 % of control
dose: 200.0 mg/kg/injection, schedule: Q04DX003 (ip), vehicle: saline sonified
  T/C: 94 % of control
dose: 400.0 mg/kg/injection, schedule: Q04DX003 (ip), vehicle: saline sonified
  T/C: 97 % of control
